This note sets out measurements from paper doi:10.1101/112086v2 (biorxiv, 2017).

Substitutions are numbered along the chain they refer to.

Test [1] addresses T1, GST-Mps1 full length (Homo sapiens, UniProt P33981, C604W).
T1 sequence (P33981 1-857 C604W): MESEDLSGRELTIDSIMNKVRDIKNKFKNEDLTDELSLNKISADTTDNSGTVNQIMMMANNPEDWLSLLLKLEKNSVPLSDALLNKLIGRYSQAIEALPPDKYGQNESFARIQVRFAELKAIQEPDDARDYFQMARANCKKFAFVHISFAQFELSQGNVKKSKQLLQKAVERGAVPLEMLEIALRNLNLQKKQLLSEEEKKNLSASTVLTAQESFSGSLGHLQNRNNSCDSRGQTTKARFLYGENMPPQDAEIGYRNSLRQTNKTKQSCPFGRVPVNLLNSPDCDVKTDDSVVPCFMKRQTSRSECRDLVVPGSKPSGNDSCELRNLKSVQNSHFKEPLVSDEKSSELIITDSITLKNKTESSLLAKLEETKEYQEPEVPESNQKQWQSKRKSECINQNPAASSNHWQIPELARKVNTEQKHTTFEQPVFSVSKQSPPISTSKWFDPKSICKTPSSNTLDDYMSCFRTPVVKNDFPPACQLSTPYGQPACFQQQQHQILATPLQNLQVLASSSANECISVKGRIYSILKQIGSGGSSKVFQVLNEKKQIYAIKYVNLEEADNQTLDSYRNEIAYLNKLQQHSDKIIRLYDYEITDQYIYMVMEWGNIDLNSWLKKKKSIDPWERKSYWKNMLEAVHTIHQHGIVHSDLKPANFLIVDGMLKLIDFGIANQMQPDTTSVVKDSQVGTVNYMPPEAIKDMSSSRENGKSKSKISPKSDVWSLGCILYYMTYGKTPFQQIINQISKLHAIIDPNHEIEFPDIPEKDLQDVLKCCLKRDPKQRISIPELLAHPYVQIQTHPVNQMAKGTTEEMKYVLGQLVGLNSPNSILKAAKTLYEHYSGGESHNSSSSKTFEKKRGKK
The experiment in a line: biochemical.

For test [2], the target named is T2, Mps1 kinase domain (Homo sapiens, UniProt P33981).
T2 sequence (P33981 519-808): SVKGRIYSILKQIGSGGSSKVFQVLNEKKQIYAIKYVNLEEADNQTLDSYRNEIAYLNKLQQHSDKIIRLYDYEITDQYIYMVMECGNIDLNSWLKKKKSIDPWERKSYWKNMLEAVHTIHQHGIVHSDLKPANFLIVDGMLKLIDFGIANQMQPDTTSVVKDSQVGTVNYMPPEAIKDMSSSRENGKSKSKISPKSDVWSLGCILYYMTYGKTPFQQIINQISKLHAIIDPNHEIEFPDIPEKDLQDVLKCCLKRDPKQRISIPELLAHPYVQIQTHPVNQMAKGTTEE
Put plainly: microscale thermophoresis, DY-547P1 labelled protein. The format is binding. Background: In MST a laser heats a spot of the sample, and binding alters the fluorescence response.

The target in test [3] is T3, GST-Mps1 full length (Homo sapiens, UniProt P33981).
T3 sequence (P33981 1-857): T1 sequence (P33981 1-857 C604W) with W604C
Put plainly: biochemical.

Test [4] concerns the target T4, GST-Mps1 full length (Homo sapiens, UniProt P33981, C604Y).
T4 sequence (P33981 1-857 C604Y): T1 sequence (P33981 1-857 C604W) with W604Y
The experiment in a line: biochemical.

Test [5] deals with T5, Mps1 kinase domain (Homo sapiens, UniProt P33981, C604Y).
T5 sequence (P33981 519-808 C604Y): T2 sequence (P33981 519-808) with C86Y
The experiment in a line: microscale thermophoresis, DY-547P1 labelled protein. The format is binding.

Test [6] deals with T6, Mps1 kinase domain (Homo sapiens, UniProt P33981, C604W).
T6 sequence (P33981 519-808 C604W): T2 sequence (P33981 519-808) with C86W
Described as above. The format is binding.

For the compound `CCc1cccc(CC)c1NC(=O)c1nn(C)c2c1CCc1cnc(Nc3ccc(N4CCN(C)CC4)cc3OC)nc1-2` [Cpd-5, N-(2,6-diethylphenyl)-8-((2-methoxy-4-(4-methylpiperazin-1-yl)phenyl)amino)-1-methyl-4,5-dihydro-1H-pyrazolo[4,3-h]quinazoline-3-carboxamide], the IC50 – broadly, the concentration that gives 50% inhibition – in test [1] was determined as 19 ± 1 nM; in test [3], 9.2 ± 1.6 nM; in test [4] it was 170 ± 30 nM. The dissociation constant Kd (in general, the equilibrium constant for the complex coming apart) turned out to be 1.6 ± 0.2 nM in test [2], 471 ± 50 nM in test [5] and 349 ± 81 nM in test [6].
